Active and inactive are the calls of the source. No cut-off for these calls is given here.
Columns and labels:
SGC-7901 [1] = assay: Induction of apoptosis in human SGC-7901 cells assessed as viable cells at 5 uM measure after 24 hrs by Annexin-PI staining based Flowcytometry method (reference value: 94.9%); format: functional; conditions: read-out: Activity
MGC-803 [2] = assay: Induction of mitochondrial membrane potential loss in human MGC-803 cells at 2.5 uM measured after 24 hrs by fluorescence method; conditions: Mitochondria
MGC-803 [3] = assay: Induction of apoptosis in human MGC-803 cells assessed as decrease in accumulation of cleaved PARP preincubated with Chloroquine measured after 24 hrs by western blot assay; format: functional, cell-based
MGC-803 [4] = assay: Antiproliferative activity against human MGC-803 cells assessed as inhibition of cell growth at measured after 72 hrs by SRB assay; format: functional
MGC-803 [5] = assay: Induction of apoptosis in human MGC-803 cells assessed as increase in ROS production preincubated for 1 hr with NAC followed by compound addition at 2.5 uM measured after 24 hrs by DCHF-DA staining based Flowcytometry method; format: functional, cell-based
SGC-7901 [6] = assay: Induction of apoptosis in human SGC-7901 cells assessed as necrotic cells at 10 uM measure after 24 hrs by Annexin-PI staining based Flowcytometry method (reference value: 1.16%); format: functional
MGC-803 [7] = assay: Induction of apoptosis in human MGC-803 cells assessed as increase in ROS production preincubated for 1 hr with NAC followed by compound addition at 5 uM measured after 24 hrs by DCHF-DA staining based Flowcytometry method; format: functional, cell-based
MGC-803 [8] = assay: Induction of apoptosis in human MGC-803 cells assessed as late apoptotic cells at 1.25 uM measure after 24 hrs by Annexin-PI staining based Flowcytometry method (reference value: 7.06%); format: functional
MGC-803 [9] = assay: Induction of apoptosis in human MGC-803 cells assessed as late apoptotic cells at 5 uM measure after 24 hrs by Annexin-PI staining based Flowcytometry method (reference value: 7.06%); format: functional
MGC-803 [10] = assay: Induction of apoptosis in human MGC-803 cells assessed as late apoptotic cells at 2.5 uM measure after 24 hrs by Annexin-PI staining based Flowcytometry method (reference value: 7.06%); format: functional
MGC-803 [11] = assay: Induction of apoptosis in human MGC-803 cells assessed as early apoptotic cells at 0.625 uM measure after 24 hrs by Annexin-PI staining based Flowcytometry method (reference value: 9.8%); format: functional
MGC-803 [12] = assay: Induction of apoptosis in human MGC-803 cells assessed as late apoptotic cells at 10 uM measure after 24 hrs by Annexin-PI staining based Flowcytometry method (reference value: 7.06%); format: functional
MGC-803 [13] = assay: Induction of apoptosis in human MGC-803 cells assessed as increase in ROS production at 5 uM measured after 24 hrs by DCHF-DA staining based Flowcytometry method; format: functional, cell-based
MGC-803 [14] = assay: Induction of mitochondrial membrane potential loss in human MGC-803 cells at 1.25 uM measured after 24 hrs by JC-1 staining based flow cytometry method (reference value: 0.344%); conditions: Mitochondria
SGC-7901 [15] = assay: Induction of apoptosis in human SGC-7901 cells assessed as viable cells at 1.25 uM measure after 24 hrs by Annexin-PI staining based Flowcytometry method (reference value: 94.9%); format: functional; conditions: read-out: Activity
MGC-803 [16] = assay: Induction of apoptosis in human MGC-803 assessed by cleaved PARP levels incubated for 1 hr with Z-LEHD-FMK followed by compound addition measured by western blot assay; format: functional, cell-based
MGC-803 [17] = assay: Induction of morphological changes in human MGC-803 cells assessed as cell shrinkage at 10 uM incubated for 1 hrs by bright field microscopic analysis; format: functional, cell-based
MGC-803 [18] = assay: Inhibition of cell proliferation in human MGC-803 cells at 10 uM measured by SRB assay; format: functional, cell-based; conditions: time 72.0 hrs
EJ = assay: Antiproliferative activity against human EJ cells assessed as inhibition of cell growth at measured after 72 hrs by SRB assay; format: functional
SGC-7901 [19] = assay: Induction of apoptosis in human SGC-7901 cells assessed as early apoptotic cells at 5 uM measure after 24 hrs by Annexin-PI staining based Flowcytometry method (reference value: 2.68%); format: functional
MGC-803 [20] = assay: Induction of apoptosis in human MGC-803 cells assessed as late apoptotic cells at 0.625 uM measure after 24 hrs by Annexin-PI staining based Flowcytometry method (reference value: 7.06%); format: functional
MGC-803 [21] = assay: Induction of morphological changes in human MGC-803 cells assessed as cell shrinkage at 5 uM incubated for 1 hrs by bright field microscopic analysis; format: functional, cell-based
A549 = assay: Antiproliferative activity against human A549 cells assessed as inhibition of cell growth at measured after 72 hrs by SRB assay; format: functional
SGC-7901 [22] = assay: Induction of apoptosis in human SGC-7901 cells assessed as early apoptotic cells at 0.625 uM measure after 24 hrs by Annexin-PI staining based Flowcytometry method (reference value: 2.68%); format: functional
MGC-803 [23] = assay: Induction of apoptosis in human MGC-803 cells assessed as accumulation of cleaved PARP protein at 0.625 to 10 uM measured after 24 hrs by western blot assay; format: functional, cell-based; conditions: dose 0.625-10 µM
SGC-7901 [24] = assay: Induction of apoptosis in human SGC-7901 cells assessed as late apoptotic cells at 0.625 uM measure after 24 hrs by Annexin-PI staining based Flowcytometry method (reference value: 1.29%); format: functional
MGC-803 [25] = assay: Antiproliferative activity in human MGC-803 cells assessed as inhibition of cell viability preincubated for 1 hr with NAC followed by compound addition at 5 uM measured after 72 hrs by SRB staining method; format: functional, cell-based
SGC-7901 [26] = assay: Induction of apoptosis in human SGC-7901 cells assessed as late apoptotic cells at 10 uM measure after 24 hrs by Annexin-PI staining based Flowcytometry method (reference value: 1.29%); format: functional
MGC-803 [27] = assay: Induction of apoptosis in human MGC-803 cells assessed as accumulation of cleaved caspase 9 protein at 0.625 to 10 uM measured after 24 hrs by western blot assay; format: functional, cell-based; conditions: dose 0.625-10 µM
SGC-7901 [28] = assay: Induction of apoptosis in human SGC-7901 cells assessed as late apoptotic cells at 5 uM measure after 24 hrs by Annexin-PI staining based Flowcytometry method (reference value: 1.29%); format: functional
MGC-803 [29] = assay: Inhibition of cell proliferation in human MGC-803 cells at 2.5 uM measured after 72 hrs by SRB assay; format: functional, cell-based
MGC-803 [30] = assay: Induction of apoptosis in human MGC-803 cells assessed as necrotic cells at 0.625 uM measure after 24 hrs by Annexin-PI staining based Flowcytometry method (reference value: 3.13%); format: functional
SGC-7901 [31] = assay: Induction of apoptosis in human SGC-7901 cells assessed as necrotic cells at 5 uM measure after 24 hrs by Annexin-PI staining based Flowcytometry method (reference value: 1.16%); format: functional
SGC-7901 [32] = assay: Induction of apoptosis in human SGC-7901 cells assessed as viable cells at 0.625 uM measure after 24 hrs by Annexin-PI staining based Flowcytometry method (reference value: 94.9%); format: functional; conditions: read-out: Activity
MGC-803 [33] = assay: Induction of apoptosis in human MGC-803 cells assessed as increase in accumulation of cleaved PARP measured after 24 hrs by western blot assay; format: functional, cell-based
MGC-803 [34] = assay: Induction of apoptosis in human MGC-803 cells assessed as increase in ROS production at 10 uM measured after 24 hrs by DCHF-DA staining based Flowcytometry method; format: functional, cell-based

Activity (MGC-803 [2]): Active | GI50 (MGC-803 [4]): 0.64 µM | Activity (MGC-803 [14]): 10.1% | GI50 (A549): > 10 µM
SMILES: Cc1cc(Nc2ccc(C(=O)/C=C/c3cccc(Br)n3)cc2)n2nc(SCc3nc4ccccc4[nH]3)nc2n1
viability at 5 µM (SGC-7901 [1]): 53% | Activity (MGC-803 [3]): inactive | Activity (MGC-803 [5]): inactive | Activity (SGC-7901 [6]): 4.79% | Activity (MGC-803 [7]): inactive | Activity (MGC-803 [8]): 1.95% | Activity (MGC-803 [9]): 15.4% | Activity (MGC-803 [10]): 4.7% | Activity (MGC-803 [11]): 4.92% | Activity (MGC-803 [12]): 36.4% | Activity (MGC-803 [13]): Active | viability at 1.25 µM (SGC-7901 [15]): 94.8% | Activity (MGC-803 [16]): inactive | Activity (MGC-803 [17]): Active | inhibition (MGC-803 [18]): Active | GI50 (EJ): > 10 µM | Activity (SGC-7901 [19]): 16.7% | Activity (MGC-803 [20]): 1.81% | Activity (MGC-803 [21]): Active | Activity (SGC-7901 [22]): 2.25% | Activity (MGC-803 [23]): Active | Activity (SGC-7901 [24]): 1.55% | inhibition (MGC-803 [25]): inactive | Activity (SGC-7901 [26]): 62.8% | Activity (MGC-803 [27]): Active | Activity (SGC-7901 [28]): 29.8% | inhibition (MGC-803 [29]): inactive | Activity (MGC-803 [30]): 1.72% | Activity (SGC-7901 [31]): 0.586% | viability at 0.625 µM (SGC-7901 [32]): 94.2% | Activity (MGC-803 [33]): Active | Activity (MGC-803 [34]): Active
